Paper PMC3183387 (Journal of the American Chemical Society, 2011)

Legend:
[1] = system: Tyr181Cys Variant Strain of HIV-1; conditions: result in words; cited from earlier work
[2] = system: variant HIV strain that encodes the Tyr181Cys (Y181C) mutation of HIV-RT; assay: Anti-HIV activity against Tyr181Cys variant strain in MT-2 cells; type: cell-based, HIV-1; conditions: result in words

SMILES	activity towards Y181C containing variants [1]	activity against viral strains containing the Tyr181Cys (Y181C) mutation [2]
CC(C)Nc1cccnc1N1CCN(C(=O)c2cc3cc(NS(C)(=O)=O)ccc3[nH]2)CC1 [delavirdine]	do not have useful activity	–
Cc1ccnc2c1NC(=O)c1cccnc1N2C1CC1 [nevirapine]	do not have useful activity	no activity
